Assay results as given in patent US7985455B2, “Polymerizable liquid crystal compound, liquid crystal composition, and polymer” (JNC Corporation, priority 2007, dated 2011).

Experiment: Solubility in PGMEA: deposition of crystals from a PGMEA solution allowed to stand at room temperature over night
Type: physicochemical
Settings: 30% by weight PGMEA solution, room temperature (20° C.) over night
Description: The compound (1-8) was dissolved in PGMEA to prepare a 20% by weight PGMEA solution.
The compound (1-19) was dissolved in PGMEA to prepare a 20% by weight PGMEA solution.
The compound (1-42) was dissolved in PGMEA to prepare a 30% by weight PGMEA solution.
The compound (1-52) was dissolved in PGMEA to prepare a 30% by weight PGMEA solution.
The compound (M1-3) was dissolved in PGMEA to prepare a 10% by weight PGMEA solution. […] It is understood from the comparison between the result and Example 1 that the compound of the invention having an oxycarbonyloxy bonding group instead of an ether bond is excellent in solubility in PGMEA. Furthermore, it is understood from the comparison between Example 5 and Example 6 that the solubility in PGMEA is further enhanced by introducing an ether structure (—O—) to the alkylene in the side chain.

- deposition of crystals from PGMEA solution: no deposition of crystals
SMILES: C=CC(=O)OCCOCCOC(=O)Oc1ccc(C(=O)Oc2ccc3c(c2)C(C)c2cc(OC(=O)c4ccc(OC(=O)OCCOCCOC(=O)C=C)cc4)ccc2-3)cc1 [Compound 1-42]
